{"source": "patent US6117866A", "about": "“Bicyclic fibrinogen antagonists” (SmithKline Beecham Corporation, priority 1996, dated 2000)", "tested_on": "human platelets", "experiment": "Inhibition of Platelet Aggregation (human platelets stimulated with ADP)", "format": "cell-based", "conditions": "in vitro"}
{"compound": "O=C(O)CC1Nc2cc(C(=O)Nc3ccc4c(c3)CNCC4)ccc2CN(CCc2ccccc2)C1=O", "note": "(racemic) [Example 4, (R,S)-8-[[(1,2,3,4-tetrahydro-7-isoquinolinyl]amino]carbonyl]-2,3,4,5-tetrahydro-3-oxo-4-(2-phenylethyl)-1H-1,4-benzodiazepine-2-acetic acid]", "values": [{"measurement": "IC50", "result": "~75", "unit": "µM"}]}
{"compound": "O=C(O)CC1Nc2ccc(C(=O)Nc3ccc4c(c3)CNCC4)cc2CN(CCc2ccccc2)C1=O", "note": "(racemic) [Example 7, (R,S)-7-[[(1,2,3,4-tetrahydro-7-isoquinolinyl]amino]carbonyl]-2,3,4,5-tetrahydro-3-oxo-4-(2-phenylethyl)-1H-1,4-benzodiazepine-2-acetic acid]", "values": [{"measurement": "IC50", "result": "0.2 to 11", "unit": "µM"}]}
{"compound": "CN(CCC1CCNCC1)C(=O)c1ccc2c(c1)CC(CCC(=O)O)C(=O)N(CCc1ccccc1)C2", "note": "(racemic) [Example 22, (R,S)-2,3,4,5-tetrahydro-3-oxo-2-(2-phenylethyl)-7-[[[2-(4-piperidinyl)ethyl]-methylamino]carbonyl]-1H-2-benzazepine-4-propionic acid]", "values": [{"measurement": "IC50", "result": "0.2 to 11", "unit": "µM"}]}
{"compound": "O=C(O)CC1Nc2ccc(C(=O)N3CCC(C4CCNCC4)CC3)cc2CN(CCc2ccccc2)C1=O", "note": "(single isomer, unassigned; (+)) [Example 23, (+)-7-[(4,4'-bipiperidin-1-yl)carbonyl]-2,3,4,5-tetrahydro-3-oxo-4-(phenylethyl)-1H-1,4-benzodiazepine-2-acetic acid]", "values": [{"measurement": "IC50", "result": "0.2 to 11", "unit": "µM"}]}
{"compound": "CN1Cc2cc(C(=O)N3CCC(C4CCNCC4)CC3)ccc2N[C@H](CC(=O)O)C1=O", "note": "[Example 26, (R)-7-[(4,4'-bipiperidin-1-yl)carbonyl]-2,3,4,5-tetrahydro-4-methyl-3-oxo-1H-1,4-benzodiazepine-2-acetic acid]", "values": [{"measurement": "IC50", "result": "0.2 to 11", "unit": "µM"}]}
